Bridge positions count the residues as written; N and C are the ends. Ends that are not written are not given here.
Key:
B. globigii = experiment: Microtiter plate absorbance/fluorescence analysis of interaction with bacterial cells (B. globigii); assay type: cell-based
Procedure: (§1) C1TPP and C1TPP-modified antimicrobial peptides were evaluated in a microtiter plate format using a Tecan XSafire monochromator-based microplate reader. Absorbance measurements were collected between 380 and 800 nm at 2 nm resolution. Fluorescence measurements were collected at 2 nm resolution for emission between 550 and 800 nm with excitation at 415 nm and for excitation between 385 and 619 nm with emission at 730 nm.
(§2) The microtiter plate format described above was utilized for analysis of interactions between the porphyrin-AMP constructs and bacterial cells, specifically, E. coli and B. globigii. The bacterial cells utilized were collected at mid-log phase growth and rinsed with water to remove growth media. They were then resuspended in water at approximately 3.5×10^7 cfu/mL. Analyses looked at changes in fluorescence and absorbance for fixed cell concentrations with varying tracer concentrations as well as for fixed tracer concentrations with varying cell concentrations. FIGS. 3A and 3B present data for the interaction between C1TPP and the two cell types, with absorbance (A) and fluorescence (B) spectra for C1TPP in water (black, 10% DMSO) and in the presence of E. coli (dashes) and B. globigii (dots) at 1.8×10^6 cfu/mL.

E. coli = experiment: Microtiter plate absorbance/fluorescence analysis of interaction with bacterial cells (E. coli); assay type: cell-based
Procedure: as §1, §2

[1] = assay type: physicochemical; conditions: for solubility with addition of 10% DMSO: 10% dimethylsulfoxide final concentration; for solubility in water: water / aqueous solution
Source text: It is still insufficient to resolve spectrophotometric characteristics with […] as evidenced by the low absorbance intensity and indistinct bands in both absorbance and fluorescence characteristics (FIGS. 1A and 1B). […] In FIGS. 2A-2D, the more traditional Soret and Q-bands in the absorbance spectra are evident, and the expected two peak fluorescence emission spectra are observed. […] Each of the constructs has unique peak positions as well as varying extinction coefficients for the Soret and Q-bands. Fluorescence emission is also uniquely varying amongst the tracers. These factors tend to indicate the formation of unique complexes providing the potential desired for these materials.

Row | Compound | changes in fluorescence on interaction with cells (B. globigii; B. globigii cells) | changes in absorbance or fluorescence characteristics on interaction with cells (B. globigii; B. globigii cells, range of concentrations evaluated) | changes in fluorescence on interaction with cells (E. coli; E. coli cells) | changes in absorbance or fluorescence characteristics on interaction with cells (E. coli; E. coli cells, range of concentrations evaluated) | solubility with addition of 10% DMSO [1] | solubility in water [1] | peak/trough pair in the Soret region of the absorbance difference spectrum (B. globigii; in the presence of B. globigii cells) | peak/trough pair in the Soret region of the absorbance difference spectrum (E. coli; in the presence of E. coli cells)
1 | O=C(O)c1ccc(-c2c3nc(c(-c4ccccc4)c4ccc([nH]4)c(-c4ccccc4)c4nc(c(-c5ccccc5)c5ccc2[nH]5)C=C4)C=C3)cc1 [C1TPP, 5-mono(4-carboxyphenyl)-10,15,20-triphenyl porphine] | overall quench | did not produce concentration dependent changes | overall quench | did not produce concentration dependent changes | increased somewhat | minimally soluble |  | 
2 | C1-Bac: C1TPP covalently attached to Bactenecin (RLCRIVVIRVCR; cyclized via disulfide bridge) (disulfide 3-11 (inferred); also: C1TPP covalently attached, site not given here) | noted for only the highest concentrations of tracer used |  | noted for only the highest concentrations of tracer used |  | sufficient to maintain the solubility | precipitated from aqueous solution | 476/432 | 476/432

Source: patent US9581594B2, “Porphyrin—modified antimicrobial peptides for application as indicators of microbial targets” (priority 2013, dated 2017)
